Data as given in US4173702A, “7-(5-Amino-5-carboxyvaler-amido)-3-(carbamoyloxymethyl)-7-methoxy-3-cep hem-4-carboxylic acid” (Eli Lilly and Company, priority 1970, dated 1979).
Read-outs that look alike come from different tables or passages of the source.

What was measured:
tomato plants = test: field trial, crop injury; type: in vivo; settings: 0=no injury, 10=dead plants
Description: (§1) A mixture of the monoammonium salt of A16886I and the monoammonium salt of A16886II was tested under field conditions for the control of Xanthomonas vesicatoria (bacterial spot) on mature bearing tomato plants. The mixture of the two salts was dispersed in water at a concentration of 100, 200, or 400 parts per million and applied to the plants at the rate of 75 gallons per acre. Application was made with a CO2 sprayer at 50 psi. Plants were sprayed twice, on successive days; after the second spray had dried, all plants were wounded by sand blasting and then within one minute the plants were inoculated with a bacterial inoculum of Xanthomonas vesicatoria. Three days later, a third spray application of the aqueous formulation of A16886 was made. Readings were made one week and two weeks after the last spray treatment. Controls consisted of groups of plants (1) sand blasted and inoculated; (2) sand blasted only; (3) untreated; and (4) treated with streptomycin (on the same three-day spraying schedule, at a concentration of 100, 200, or 400 parts per million of aqueous solution, using a rate of 75 gallons per acre), sand blasted, and inoculated. The results were as set forth in the following table, in which crop injury is reported on a scale of 0-10, with 0=no injury and 10=dead plants; and control of bacterial spot is reported on a percentage basis.

Xanthomonas vesicatoria = test: field trial, bacterial spot control on tomato plants; type: in vivo
Description: as §1

solubility = type: physicochemical
[1] = tested on: Ascaris lumbricoides var. suum; test: medicated feed, mice infected with Ascaris ova, lung lesions; type: in vivo; settings: Example 13, mice, 0.05 percent in diet; control 2.66
Source text: The feeds were utilized as diets for separate groups of mice, five mice per group. Above twelve hours after initiation of the feeding, the mice were infected with Ascaris lumbricoides var. suum ova. Another group of five mice were fed the non-medicated feed to serve as a control but was similarly infected at the same time with Ascaris lumbricoides var. suum. All groups were fed their respective feed and maintained under normal laboratory conditions for a period of eight days, at which time all mice were taken off feed. On the ninth day, all mice were sacrificed and the lungs examined to determine the presence, and if present, numbers, of lesions of Ascaris lumbricoides var. suum.
Another evaluation was conducted under the procedures reported in Example 11, except that the rates were varied. The results were as follows:
In a further evaluation, the monoammonium salts of A16886I and A16886II were separately evaluated for the control of Ascaris lumbricoides var. suum. The evaluations were conducted in accordance with the procedure reported in Example 11 at a concentration in the diet of 0.05 percent.

Pseudomonas solanacearum = type: in vivo; settings: 0 no control, 4 complete control
[2] = in acetonitrile and other organic solvents

## [H]/N=C(/N)N[C@H]1[C@H](O)[C@@H](O)[C@H](O[C@@H]2O[C@@H](C)[C@](O)(C=O)[C@H]2O[C@@H]2O[C@@H](CO)[C@H](O)[C@@H](O)[C@@H]2NC)[C@@H](N/C(N)=N\[H])[C@@H]1O [Streptomycin]
Tomato plants; 100 ppm, First Reading
  Crop Injury Ratings: 0
Tomato plants; 100 ppm, Second Reading
  Crop Injury Ratings: 0
Tomato plants; 200 ppm, First Reading
  Crop Injury Ratings: 0
Tomato plants; 200 ppm, Second Reading
  Crop Injury Ratings: 0
Tomato plants; 400 ppm, First Reading
  Crop Injury Ratings: 0
Tomato plants; 400 ppm, Second Reading
  Crop Injury Ratings: 0
Xanthomonas vesicatoria; 100 ppm, First Reading
  Percent Bacterial Spot Control: 83%
Xanthomonas vesicatoria; 100 ppm, Second Reading
  Percent Bacterial Spot Control: 57%
Xanthomonas vesicatoria; 200 ppm, First Reading
  Percent Bacterial Spot Control: 81%
Xanthomonas vesicatoria; 200 ppm, Second Reading
  Percent Bacterial Spot Control: 37%
Xanthomonas vesicatoria; 400 ppm, First Reading
  Percent Bacterial Spot Control: 83%
Xanthomonas vesicatoria; 400 ppm, Second Reading
  Percent Bacterial Spot Control: 59%

## COC1(NC(=O)CCCC(N)C(=O)O)C(=O)N2C(C(=O)O)=C(COC(N)=O)CS[C@@H]21 (stereo partly drawn) [A16886I, 7-(5-amino-5-carboxyvaleramido)-3-(carbamoyloxymethyl)-7-methoxy-3-cephem-4-carboxylic acid]
solubility; [2]
  solubility: essentially insoluble
solubility; in lower alkanols
  solubility: slightly soluble
solubility; in water
  solubility: very soluble
[1]
  Average Number of Lung Lesions Per Group: 0.46
Pseudomonas solanacearum; Example 7, 10 ppm.
  Disease Rating: 2
Pseudomonas solanacearum; Example 7, 100 ppm.
  Disease Rating: 4
Pseudomonas solanacearum; Example 8, 100 ppm.
  rating: 4
Pseudomonas solanacearum; Example 8, 200 ppm.
  rating: 4
Pseudomonas solanacearum; Example 8, 400 ppm.
  rating: 4

## NC(=O)OCC1=C(C(=O)O)N2C(=O)C(NC(=O)CCCC(N)C(=O)O)[C@H]2SC1 (stereo partly drawn) [A16886II, 7-(5-amino-5-carboxyvaleramido)-3-(carbamoyloxymethyl)-3-cephem-4-carboxylic acid]
solubility; [2]
  solubility: essentially insoluble
solubility; in lower alkanols
  solubility: slightly soluble
solubility; in water
  solubility: very soluble
[1]
  Average Number of Lung Lesions Per Group: 0.20
Pseudomonas solanacearum; Example 7, 10 ppm.
  Disease Rating: 1
Pseudomonas solanacearum; Example 7, 100 ppm.
  Disease Rating: 4
